Measured values as given in ChEMBL document CHEMBL4715697, “Synthesis and biological activity of benzamide DNA minor groove binders” (2016).

Assays:
Type in all cases: functional
HL-60(TB) = assay: Growth inhibition of human HL-60(TB) cells assessed as cell growth at 100 uM incubated for 48 hrs by sulforhodamine B assay relative to control; details: read-out: Activity
COLO 205 = assay: Growth inhibition of human COLO 205 cells assessed as cell growth at 100 uM incubated for 48 hrs by sulforhodamine B assay relative to control; details: read-out: Activity
NCI-H522 = assay: Growth inhibition of human NCI-H522 cells incubated for 48 hrs by sulforhodamine B assay
T47D [1] = assay: Growth inhibition of human T47D cells assessed as cell growth at 100 uM incubated for 48 hrs by sulforhodamine B assay relative to control; details: read-out: Activity
SNB-75 = assay: Growth inhibition of human SNB-75 cells assessed as cell growth at 1 uM incubated for 48 hrs by sulforhodamine B assay relative to control; details: read-out: Activity
UACC-257 = assay: Growth inhibition of human UACC-257 cells assessed as cell growth at 1 uM incubated for 48 hrs by sulforhodamine B assay relative to control; details: read-out: Activity
Malme-3M [2] = assay: Growth inhibition of human Malme-3M cells assessed as cell growth at 0.01 uM incubated for 48 hrs by sulforhodamine B assay relative to control; details: read-out: Activity
SF-539 [3] = assay: Growth inhibition of human SF-539 cells assessed as cell growth at 0.01 uM incubated for 48 hrs by sulforhodamine B assay relative to control; details: read-out: Activity
UACC-62 [4] = assay: Growth inhibition of human UACC-62 cells assessed as cell growth at 0.01 uM incubated for 48 hrs by sulforhodamine B assay relative to control; details: read-out: Activity
NCI/ADR-RES = assay: Growth inhibition of human NCI/ADR-RES cells assessed as cell growth at 1 uM incubated for 48 hrs by sulforhodamine B assay relative to control; details: read-out: Activity
MDA-MB-231 = assay: Growth inhibition of human MDA-MB-231 cells assessed as cell growth at 1 uM incubated for 48 hrs by sulforhodamine B assay relative to control; details: read-out: Activity
A549 = assay: Growth inhibition of human A549/ATCC cells incubated for 48 hrs by sulforhodamine B assay
SK-MEL-28 = assay: Growth inhibition of human SK-MEL-28 cells assessed as cell growth at 0.1 uM incubated for 48 hrs by sulforhodamine B assay relative to control; details: read-out: Activity
MDA-MB-435 = assay: Growth inhibition of human MDA-MB-435 cells incubated for 48 hrs by sulforhodamine B assay
Malme-3M [5] = assay: Growth inhibition of human Malme-3M cells assessed as cell growth at 100 uM incubated for 48 hrs by sulforhodamine B assay relative to control; details: read-out: Activity
T47D [6] = assay: Growth inhibition of human T47D cells assessed as cell growth at 1 uM incubated for 48 hrs by sulforhodamine B assay relative to control; details: read-out: Activity
M14 = assay: Growth inhibition of human M14 cells assessed as cell growth at 0.1 uM incubated for 48 hrs by sulforhodamine B assay relative to control; details: read-out: Activity
OVCAR-4 [7] = assay: Growth inhibition of human OVCAR-4 cells assessed as cell growth at 0.01 uM incubated for 48 hrs by sulforhodamine B assay relative to control; details: read-out: Activity
CCRF-CEM [8] = assay: Growth inhibition of human CCRF-CEM cells incubated for 48 hrs by sulforhodamine B assay
BT-549 = assay: Growth inhibition of human BT-549 cells assessed as cell growth at 100 uM incubated for 48 hrs by sulforhodamine B assay relative to control; details: read-out: Activity
UO-31 = assay: Growth inhibition of human UO-31 cells assessed as cell growth at 1 uM incubated for 48 hrs by sulforhodamine B assay relative to control; details: read-out: Activity
UACC-62 [9] = assay: Growth inhibition of human UACC-62 cells assessed as cell growth at 0.1 uM incubated for 48 hrs by sulforhodamine B assay relative to control; details: read-out: Activity
SK-MEL-5 [10] = assay: Growth inhibition of human SK-MEL-5 cells assessed as cell growth at 0.01 uM incubated for 48 hrs by sulforhodamine B assay relative to control; details: read-out: Activity
SK-MEL-5 [11] = assay: Growth inhibition of human SK-MEL-5 cells assessed as cell growth at 1 uM incubated for 48 hrs by sulforhodamine B assay relative to control; details: read-out: Activity
HT-29 = assay: Growth inhibition of human HT-29 cells assessed as cell growth at 0.1 uM incubated for 48 hrs by sulforhodamine B assay relative to control; details: read-out: Activity
Hs-578T = assay: Growth inhibition of human Hs-578T cells assessed as cell growth at 100 uM incubated for 48 hrs by sulforhodamine B assay relative to control; details: read-out: Activity
HOP-62 = assay: Growth inhibition of human HOP-62 cells assessed as cell growth at 0.1 uM incubated for 48 hrs by sulforhodamine B assay relative to control; details: read-out: Activity
SF-539 [12] = assay: Growth inhibition of human SF-539 cells assessed as cell growth at 100 uM incubated for 48 hrs by sulforhodamine B assay relative to control; details: read-out: Activity
SK-MEL-5 [13] = assay: Growth inhibition of human SK-MEL-5 cells assessed as cell growth at 0.1 uM incubated for 48 hrs by sulforhodamine B assay relative to control; details: read-out: Activity
CCRF-CEM [14] = assay: Growth inhibition of human CCRF-CEM cells assessed as cell growth at 0.01 uM incubated for 48 hrs by sulforhodamine B assay relative to control; details: read-out: Activity
CAKI-1 = assay: Growth inhibition of human CAKI-1 cells assessed as cell growth at 0.1 uM incubated for 48 hrs by sulforhodamine B assay relative to control; details: read-out: Activity
NCI-H23 = assay: Growth inhibition of human NCI-H23 cells assessed as cell growth at 0.1 uM incubated for 48 hrs by sulforhodamine B assay relative to control; details: read-out: Activity
MDA-MB-468 = assay: Growth inhibition of human MDA-MB-468 cells incubated for 48 hrs by sulforhodamine B assay
OVCAR-4 [15] = assay: Growth inhibition of human OVCAR-4 cells assessed as cell growth at 0.1 uM incubated for 48 hrs by sulforhodamine B assay relative to control; details: read-out: Activity
ACHN = assay: Growth inhibition of human ACHN cells incubated for 48 hrs by sulforhodamine B assay
[16] = read-out: LC50 (the source's name)
[17] = read-out: pLC50 (the source's name) (converted)

CC(=O)Nc1cc(CO[Si](C)(C)C(C)(C)C)cc(NC(=O)c2ccc(C(=O)Nc3cccc(NC(=O)CCCN(C)C)c3)cc2)c1 was tested, and the growth at 100 µM (HL-60(TB)) was 88%, the growth at 100 µM (COLO 205) was 80% and the GI50 (NCI-H522; read-out: GI50) was > 75 µM. For the same compound, the CC50 (NCI-H522; [16]) was > 75 µM, the TGI (NCI-H522; read-out: TGI) was > 75 µM and the GI50 (NCI-H522; read-out: pGI50 (converted)) was > 75.9 µM. The CC50 (NCI-H522; [17]) was > 75.9 µM, the TGI (NCI-H522; read-out: pTGI) was > 75.9 µM and the growth at 100 µM (T47D [1]) was 58%. For the same compound, the growth at 1 µM (SNB-75) was 80%, the growth at 1 µM (UACC-257) was 89% and the growth at 0.01 µM (Malme-3M [2]) was 99%. The growth at 0.01 µM (SF-539 [3]) was 95%, the growth at 0.01 µM (UACC-62 [4]) was 96% and the growth at 1 µM (NCI/ADR-RES) was 97%. For the same compound, the growth at 1 µM (MDA-MB-231) was 106%, the GI50 (A549; read-out: GI50) was > 75 µM and the CC50 (A549; [16]) was > 75 µM. For the same compound, the TGI (A549; read-out: TGI) was > 75 µM, the GI50 (A549; read-out: pGI50 (converted)) was > 75.9 µM and the CC50 (A549; [17]) was > 75.9 µM. The TGI (A549; read-out: pTGI) was > 75.9 µM, the growth at 0.1 µM (SK-MEL-28) was 95% and the GI50 (MDA-MB-435; read-out: GI50) was > 75 µM. The LC50 (50% lethal concentration) (MDA-MB-435; read-out: LC50) was > 75 µM, the TGI (MDA-MB-435; read-out: TGI) was > 75 µM and the GI50 (MDA-MB-435; read-out: pGI50 (converted)) was > 75.9 µM. The LC50 (50% lethal concentration) (MDA-MB-435; read-out: pLC50 (converted)) was > 75.9 µM, the TGI (MDA-MB-435; read-out: pTGI) was > 75.9 µM and the growth at 100 µM (Malme-3M [5]) was 33%. It also gave a growth at 1 µM (T47D [6]) of 107%, a growth at 0.1 µM (M14) of 95% and a growth at 0.01 µM (OVCAR-4 [7]) of 95%. The GI50 (CCRF-CEM [8]; read-out: GI50) was > 75 µM, the CC50 (CCRF-CEM [8]; [16]) was > 75 µM and the TGI (CCRF-CEM [8]; read-out: TGI) was > 75 µM. The GI50 (CCRF-CEM [8]; read-out: pGI50 (converted)) was > 75.9 µM, the CC50 (CCRF-CEM [8]; [17]) was > 75.9 µM and the TGI (CCRF-CEM [8]; read-out: pTGI (converted)) was > 75.9 µM. The growth at 100 µM (BT-549) was 86%, the growth at 1 µM (UO-31) was 105% and the growth at 0.1 µM (UACC-62 [9]) was 94%. For the same compound, the growth at 0.01 µM (SK-MEL-5 [10]) was 98%, the growth at 1 µM (SK-MEL-5 [11]) was 98% and the growth at 0.1 µM (HT-29) was 103%. The growth at 100 µM (Hs-578T) was 89%, the growth at 0.1 µM (HOP-62) was 98% and the growth at 100 µM (SF-539 [12]) was 88%. The growth at 0.1 µM (SK-MEL-5 [13]) was 97%, the growth at 0.01 µM (CCRF-CEM [14]) was 97% and the growth at 0.1 µM (CAKI-1) was 91%. The growth at 0.1 µM (NCI-H23) was 98%, the GI50 (MDA-MB-468; read-out: GI50) was > 75 µM and the CC50 (MDA-MB-468; [16]) was > 75 µM. For the same compound, the TGI (MDA-MB-468; read-out: TGI) was > 75 µM, the GI50 (MDA-MB-468; read-out: pGI50 (converted)) was > 75.9 µM and the CC50 (MDA-MB-468; [17]) was > 75.9 µM. For the same compound, the TGI (MDA-MB-468; read-out: pTGI) was > 75.9 µM, the growth at 0.1 µM (OVCAR-4 [15]) was 96% and the GI50 (ACHN; read-out: GI50) was > 75 µM. The CC50 (ACHN; [16]) was > 75 µM, the TGI (ACHN; read-out: TGI) was > 75 µM and the GI50 (ACHN; read-out: pGI50 (converted)) was > 75.9 µM. For the same compound, the CC50 (ACHN; [17]) was > 75.9 µM and the TGI (ACHN; read-out: pTGI) was > 75.9 µM.
